Results on 18 compounds are retold here after US20260109715A1, “IMIDAZOPYRIDINE DERIVATIVES WITH BICYCLIC STRUCTURE” (PUBLIC UNIVERSITY CORPORATION YOKOHAMA CITY UNIVERSITY, priority 2022, published 2026).

Assay [1] relates to Snhg1 transcript in tumor tissues of mice subcutaneously implanted with EMT6 murine breast cancer cell line. As to the kind of experiment: Evaluation of NMD inhibitory activity in vivo (Snhg1 transcript in EMT6 tumor tissue after oral administration). The settings on record: 6 hours after administration, BALB/c mice. How it is done:
The NMD inhibitory activity of a compound of the present invention or a pharmaceutically acceptable salt thereof in vivo can be measured, for example, by the method described below. Using mice subcutaneously implanted with EMT6 murine breast cancer cell line, tumor tissues 6 hours after oral administration of a test substance are excised, and the increase in Snhg1 transcript is quantified as an indicator of NMD inhibition in the tumor, in the same manner as in the in vitro method.
In this test, NMD inhibitory activity in tumor tissues was evaluated when a test substance was orally administered to mice subcutaneously implanted with EMT6 murine breast cancer cell line. As an indicator of NMD inhibitory activity, the increase in the transcript of Snhg1, an NMD target gene, was quantified. First, BALB/c mice were subcutaneously implanted with EMT6 cells (ATCC), and engraftment was confirmed 7 days later. Six hours after administration of the test substance, mice were euthanized, and the collected tumor tissues were cryopreserved. RNA was extracted from the tumor tissues using the illustra RNAspin Mini RNA Isolation kit (GE Healthcare Life Sciences). After synthesizing cDNA using the High-Capacity cDNA Reverse Transcription Kits (Applied Biosystems, 4368813), the cDNA was mixed with PrimeTime Gene Expression Master Mix (Integrated DNA Technologies) and various probes, and gene expression was quantified by QuantStudio 6 Flex (Thermo Fisher Scientific Inc.). For the probe for the Snhg1 gene, which is an NMD target, Mm.PT.58.44039547 (FAM) (Integrated DNA Technologies) was used, and for the probe for the Gapdh gene, which is an endogenous control, Mm99999915_g2 (VIC-PL) (Applied Biosystems) was used. The relative quantification of Snhg1 transcripts in each sample was calculated by the ΔΔCT method using Gapdh as an endogenous control, and the expression level of Snhg1 in each test substance administration group was calculated by setting the expression level of the Vehicle group (0.5% methylcellulose administration group) to 1.

The test system of assay [2] is Snhg1 transcript (NMD target gene) in EMT6 murine breast cancer cell line. The experiment in a line: Measurement of NMD inhibitory activity in cells (increase in Snhg1 transcript, real-time PCR). Also noted: species or system mouse. The settings on record: Mus musculus, 6 hours treatment, concentration giving 1/2 of maximum Snhg1 fold change of positive control, read-out: Test Example 2 Cell-based Snhg1 EC50. In outline: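 EMT6 cells treated with serially diluted compound (2% DMSO final) for 6 h; Snhg1 transcript quantified by real-time PCR (ΔΔCT, Tbp endogenous control, untreated wells set to 1). EC50 taken as concentration giving half the maximum fold change of a known NMD inhibitor positive control.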
A general note: In qPCR the cycle at which signal appears reflects the starting amount.

Assay [3] addresses human SMG1 enzyme (Homo sapiens, UniProt Q96Q15). As to the kind of experiment: Measurement of SMG1 kinase activity (ADP-Glo Kinase Assay). The assay is classed as biochemical. The conditions noted are these: purified human SMG1 enzyme 5 nM, Upf1 peptide substrate, ATP 4 μM; qAC50 synonymous with IC50; read-out: Test Example 1 ADP-Glo IC50. In outline: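 ADP-Glo luminescence readout of ADP made by 5 nM human SMG1 acting on 8 μg/mL Upf1 peptide with 4 μM ATP for 60 min at room temperature, after a 15 min enzyme–compound preincubation (1% DMSO; pH 7.5 HEPES, MnCl2). Activity scaled between DMSO and no-enzyme wells; IC50 by four-parameter logistic regression.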
For orientation: ADP-Glo first removes unused ATP, then detects ADP through luciferase.

Chain of human SMG1 enzyme (Q96Q15 whole entry): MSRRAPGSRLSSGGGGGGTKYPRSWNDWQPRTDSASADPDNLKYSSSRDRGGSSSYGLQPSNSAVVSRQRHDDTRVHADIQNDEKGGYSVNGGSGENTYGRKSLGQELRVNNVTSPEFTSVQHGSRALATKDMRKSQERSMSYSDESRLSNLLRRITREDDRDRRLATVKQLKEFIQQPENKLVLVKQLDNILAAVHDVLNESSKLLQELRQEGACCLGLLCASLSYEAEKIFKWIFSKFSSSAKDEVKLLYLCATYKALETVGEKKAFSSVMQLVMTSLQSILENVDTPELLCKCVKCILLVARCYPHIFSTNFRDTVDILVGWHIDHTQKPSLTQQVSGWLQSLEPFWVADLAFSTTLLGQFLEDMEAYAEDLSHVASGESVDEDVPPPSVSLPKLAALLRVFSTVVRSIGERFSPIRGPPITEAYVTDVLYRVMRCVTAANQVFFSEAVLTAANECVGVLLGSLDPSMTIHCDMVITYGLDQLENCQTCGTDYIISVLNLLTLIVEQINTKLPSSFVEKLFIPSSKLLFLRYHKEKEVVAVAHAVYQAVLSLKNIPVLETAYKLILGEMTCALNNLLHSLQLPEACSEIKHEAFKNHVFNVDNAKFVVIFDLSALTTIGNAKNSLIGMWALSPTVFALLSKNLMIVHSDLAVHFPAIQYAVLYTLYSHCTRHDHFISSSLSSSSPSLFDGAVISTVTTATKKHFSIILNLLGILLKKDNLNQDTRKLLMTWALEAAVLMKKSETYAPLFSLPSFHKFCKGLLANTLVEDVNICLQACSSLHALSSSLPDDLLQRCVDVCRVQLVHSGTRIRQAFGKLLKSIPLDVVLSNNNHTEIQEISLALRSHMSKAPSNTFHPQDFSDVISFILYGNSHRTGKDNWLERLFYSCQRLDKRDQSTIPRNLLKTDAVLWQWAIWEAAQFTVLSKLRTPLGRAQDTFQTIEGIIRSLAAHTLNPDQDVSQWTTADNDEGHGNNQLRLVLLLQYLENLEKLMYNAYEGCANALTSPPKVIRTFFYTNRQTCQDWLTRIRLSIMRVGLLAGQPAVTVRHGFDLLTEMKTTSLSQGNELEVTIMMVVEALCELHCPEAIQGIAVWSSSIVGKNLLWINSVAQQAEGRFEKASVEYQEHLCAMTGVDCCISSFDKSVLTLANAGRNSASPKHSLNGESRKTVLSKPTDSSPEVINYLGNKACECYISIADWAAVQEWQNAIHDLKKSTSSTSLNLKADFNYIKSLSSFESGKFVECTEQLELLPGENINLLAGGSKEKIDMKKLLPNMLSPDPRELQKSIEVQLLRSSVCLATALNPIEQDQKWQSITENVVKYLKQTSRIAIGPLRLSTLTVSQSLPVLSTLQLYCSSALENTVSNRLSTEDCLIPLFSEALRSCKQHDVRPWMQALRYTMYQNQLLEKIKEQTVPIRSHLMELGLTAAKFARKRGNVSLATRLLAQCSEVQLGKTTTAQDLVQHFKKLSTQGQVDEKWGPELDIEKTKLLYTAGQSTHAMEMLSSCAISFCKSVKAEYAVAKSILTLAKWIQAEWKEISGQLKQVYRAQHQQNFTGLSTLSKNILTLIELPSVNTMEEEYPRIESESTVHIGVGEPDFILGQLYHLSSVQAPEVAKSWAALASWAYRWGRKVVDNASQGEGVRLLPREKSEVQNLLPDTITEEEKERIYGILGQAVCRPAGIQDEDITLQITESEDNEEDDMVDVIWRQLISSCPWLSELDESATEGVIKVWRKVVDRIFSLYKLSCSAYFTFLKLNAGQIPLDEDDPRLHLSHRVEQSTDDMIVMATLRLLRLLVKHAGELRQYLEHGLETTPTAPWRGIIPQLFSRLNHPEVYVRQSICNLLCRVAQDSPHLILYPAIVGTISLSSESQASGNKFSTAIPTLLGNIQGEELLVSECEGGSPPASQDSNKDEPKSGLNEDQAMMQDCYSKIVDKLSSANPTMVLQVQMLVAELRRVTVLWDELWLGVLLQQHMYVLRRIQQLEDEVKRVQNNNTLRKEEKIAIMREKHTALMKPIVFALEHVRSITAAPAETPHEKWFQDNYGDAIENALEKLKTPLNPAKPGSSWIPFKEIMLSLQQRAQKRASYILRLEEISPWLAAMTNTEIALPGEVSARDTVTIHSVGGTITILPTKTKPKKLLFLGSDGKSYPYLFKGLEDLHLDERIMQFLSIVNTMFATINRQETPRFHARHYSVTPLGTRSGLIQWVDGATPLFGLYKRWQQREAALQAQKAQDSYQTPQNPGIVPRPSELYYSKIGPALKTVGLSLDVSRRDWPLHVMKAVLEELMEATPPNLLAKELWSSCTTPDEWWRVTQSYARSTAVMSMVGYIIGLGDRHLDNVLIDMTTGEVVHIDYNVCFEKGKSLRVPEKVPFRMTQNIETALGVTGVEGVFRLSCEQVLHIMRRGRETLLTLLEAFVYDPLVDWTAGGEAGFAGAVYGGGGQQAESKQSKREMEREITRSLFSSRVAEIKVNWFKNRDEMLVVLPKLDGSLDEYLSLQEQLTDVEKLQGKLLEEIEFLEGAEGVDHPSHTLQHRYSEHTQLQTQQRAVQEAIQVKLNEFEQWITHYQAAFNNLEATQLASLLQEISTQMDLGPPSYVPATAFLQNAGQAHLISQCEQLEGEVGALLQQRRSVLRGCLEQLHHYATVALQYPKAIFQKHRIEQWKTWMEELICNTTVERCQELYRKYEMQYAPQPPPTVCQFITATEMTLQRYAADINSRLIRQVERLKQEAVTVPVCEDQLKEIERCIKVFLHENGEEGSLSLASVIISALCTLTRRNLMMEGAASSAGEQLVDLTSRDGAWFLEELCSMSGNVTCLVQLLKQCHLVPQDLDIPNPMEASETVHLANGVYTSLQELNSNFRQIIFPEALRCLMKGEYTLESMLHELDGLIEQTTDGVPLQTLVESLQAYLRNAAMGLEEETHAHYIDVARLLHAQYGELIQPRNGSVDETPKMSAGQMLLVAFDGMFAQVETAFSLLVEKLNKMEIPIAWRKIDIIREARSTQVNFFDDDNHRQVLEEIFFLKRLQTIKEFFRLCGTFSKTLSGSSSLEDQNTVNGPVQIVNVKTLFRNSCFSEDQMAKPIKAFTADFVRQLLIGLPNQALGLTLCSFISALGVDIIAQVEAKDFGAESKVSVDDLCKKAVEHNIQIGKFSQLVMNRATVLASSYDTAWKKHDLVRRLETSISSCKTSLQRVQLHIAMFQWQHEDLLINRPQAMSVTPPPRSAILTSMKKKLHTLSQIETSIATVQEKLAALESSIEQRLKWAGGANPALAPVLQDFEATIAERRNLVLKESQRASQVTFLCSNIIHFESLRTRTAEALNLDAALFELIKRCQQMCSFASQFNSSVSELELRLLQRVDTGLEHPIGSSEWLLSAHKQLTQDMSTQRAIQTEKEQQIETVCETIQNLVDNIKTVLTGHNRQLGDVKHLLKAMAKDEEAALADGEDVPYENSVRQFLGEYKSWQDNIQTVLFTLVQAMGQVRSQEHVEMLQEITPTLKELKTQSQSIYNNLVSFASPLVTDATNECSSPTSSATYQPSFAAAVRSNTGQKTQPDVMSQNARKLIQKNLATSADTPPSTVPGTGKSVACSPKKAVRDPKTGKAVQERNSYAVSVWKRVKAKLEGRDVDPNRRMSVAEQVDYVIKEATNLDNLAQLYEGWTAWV

`Cc1nc(Cl)cc2[nH]c(-c3cc4c(-c5ccccc5Cl)nccc4[nH]c3=O)nc12` [Example 29, 3-(6-chloro-4-methyl-1H-imidazo[4,5-c]pyridin-2-y1)-5-(2-chlorophenyl)-1,6-naphthyridin-2(1H)-one] displayed a Snhg1 fold change in assay [1] (30 mg/kg oral) of 4.6. For the same compound, in assay [2], the concentration giving a half-maximal response (EC50) (usually the concentration needed to bring the measured effect to its halfway point) amounted to 56 nM. Also, the IC50 (commonly the concentration needed to halve the response being measured) in assay [3] turned out to be 2 nM.
`Cc1nc(Cl)cc2[nH]c(-c3cc4c(-c5c(F)cccc5Cl)nccc4[nH]c3=O)nc12` [Example 31, 5-(2-chloro-6-fluorophenyl)-3-(6-chloro-4-methyl-1H-imidazo[4,5-c]pyridin-2-y1)-1,6-naphthyridin-2(1H)-one]: the Snhg1 fold change in assay [1] (10 mg/kg oral) is recorded as 5.5. In addition, the half-maximal effective concentration (EC50) in assay [2] turned out to be 34 nM. The IC50 in assay [3] is 1.3 nM.
With `Cc1ccccc1-c1nccc2[nH]c(=O)c(-c3nc4cnc(Cl)cc4[nH]3)cc12` [Example 32, 3-(6-chloro-1H-imidazo[4,5-c]pyridin-2-y1)-5-(2-methylpheny1)-1,6-naphthyridin-2(1H)-one], the Snhg1 fold change in assay [1] (50 mg/kg oral) turned out to be 12. Besides, in assay [2], the EC50 turned out to be 77 nM. The IC50 in assay [3] amounted to 2.4 nM.
`COc1ccccc1-c1nccc2[nH]c(=O)c(-c3nc4cnc(Cl)cc4[nH]3)cc12` [Example 34, 3-(6-chloro-1H-imidazo[4,5-c]pyridin-2-y1)-5-(2-methoxyphenyl)-1,6-naphthyridin-2(1H)-one] had a Snhg1 fold change in assay [1] (25 mg/kg oral) of 6.2. Besides, in assay [2], the concentration giving a half-maximal response (EC50) came out at 25 nM. Further, the half-inhibitory concentration (IC50) in assay [3] is 2.2 nM.
Regarding `COc1cccc(F)c1-c1nccc2[nH]c(=O)c(-c3nc4cnc(Cl)cc4[nH]3)cc12` [Example 35, 3-(6-chloro-1H-imidazo[4,5-c]pyridin-2-y1)-5-(2-fluoro-6-methoxyphenyl)-1,6-naphthyridin-2(1H)-one], the Snhg1 fold change in assay [1] (10 mg/kg oral) was determined as 4.6. In assay [2], the EC50 was found to be 40 nM. Moreover, the 50% inhibitory concentration (IC50) in assay [3] turned out to be 1.4 nM.
In turn, `CCc1nc(Cl)cc2[nH]c(-c3cc4c(-c5cc(F)ccc5OC)nccc4[nH]c3=O)nc12` [Example 36, 3-(6-chloro-4-ethyl-1H-imidazo[4,5-c]pyridin-2-yl)-5-(5-fluoro-2-methoxyphenyl)-1,6-naphthyridin-2(1H)-one] returned a Snhg1 fold change in assay [1] (10 mg/kg oral) of 7.5. For the same compound, the concentration giving a half-maximal response (EC50) in assay [2] came to 11 nM. For the same compound, the IC50 in assay [3] came out at 1.2 nM.
In the same order, the values of `[2H]C([2H])([2H])Oc1ccccc1-c1nccc2[nH]c(=O)c(-c3nc4c(CC)nc(Cl)cc4[nH]3)cc12` [Example 37, 3-(6-chloro-4-ethyl-1H-imidazo[4,5-c]pyridin-2-yl)-5-{2-[(^2H3)methyloxy]phenyl}-1,6-naphthyridin-2(1H)-one] are 8.4, 9.4 nM and 0.36 nM.
On to `[2H]C([2H])([2H])Oc1ccccc1-c1nccc2[nH]c(=O)c(-c3nc4c(C(C)C)nc(Cl)cc4[nH]3)cc12` [Example 38, 3-[6-chloro-4-(propan-2-yl)-1H-imidazo[4,5-c]pyridin-2-yl]-5-{2-[(^2H3)methyloxy]phenyl}-1,6-naphthyridin-2(1H)-one], for which the Snhg1 fold change in assay [1] (30 mg/kg oral) was determined as 9.2. In addition, the EC50 in assay [2] came out at 10 nM. For the same compound, the IC50 in assay [3] came out at 1.7 nM.
As to `COc1cc(C(C)C)ncc1-c1nccc2[nH]c(=O)c(-c3nc4cnc(Cl)cc4[nH]3)cc12` [Example 61, 3-(6-chloro-1H-imidazo[4,5-c]pyridin-2-yl)-5-[4-methoxy-6-(propan-2-yl)pyridin-3-yl]-1,6-naphthyridin-2(1H)-one], the Snhg1 fold change in assay [1] (100 mg/kg oral) was 4.3. In assay [2], the concentration giving a half-maximal response (EC50) is 26 nM. The IC50 in assay [3] worked out at 1.4 nM.
For `CCc1nc(Cl)cc2[nH]c(-c3cc4c(-c5ccc(C)nc5OC)nccc4[nH]c3=O)nc12` [Example 68, 3-(6-chloro-4-ethyl-1H-imidazo[4,5-c]pyridin-2-yl)-5-(2-methoxy-6-methylpyridin-3-yl)-1,6-naphthyridin-2(1H)-one], the Snhg1 fold change in assay [1] (30 mg/kg oral) turned out to be 8.3. Moreover, the 50% effective concentration (EC50) in assay [2] amounted to 10 nM. Further, the IC50 in assay [3] is 0.62 nM.
`CCc1nc(Cl)cc2[nH]c(-c3cc4c(-c5cnc(OC)nc5OC)nccc4[nH]c3=O)nc12` [Example 70, 3-(6-chloro-4-ethyl-1H-imidazo[4,5-c]pyridin-2-yl)-5-(2,4-dimethoxypyrimidin-5-yl)-1,6-naphthyridin-2(1H)-one] showed a Snhg1 fold change in assay [1] (10 mg/kg oral) of 3.6. In addition, in assay [2], the concentration for a half-maximal effect (EC50) is 15 nM. Further, the IC50 in assay [3] came out at 0.56 nM.
Take `COc1ncc(-c2nccc3[nH]c(=O)c(-c4nc5c(NCC(F)F)nc(Cl)cc5[nH]4)cc23)c(OC)n1` [Example 72, 3-(6-chloro-4-[(2,2-difluoroethyl)amino]-1H-imidazo[4,5-c]pyridin-2-yl)-5-(2,4-dimethoxypyrimidin-5-yl)-1,6-naphthyridin-2(1H)-one]: the Snhg1 fold change in assay [1] (30 mg/kg oral) was found to be 4.3. For the same compound, in assay [2], the EC50 is 4.5 nM. Further, the half-maximal inhibitory concentration (IC50) in assay [3] was found to be 0.81 nM.
Regarding `Cc1nn(C(F)F)c(C)c1-c1nccc2[nH]c(=O)c(-c3nc4c(C)nc(Cl)cc4[nH]3)cc12` [Example 84, 3-(6-chloro-4-methyl-1H-imidazo[4,5-c]pyridin-2-yl)-5-[1-(difluoromethyl)-3,5-dimethyl-1H-pyrazol-4-yl]-1,6-naphthyridin-2(1H)-one], the Snhg1 fold change in assay [1] (10 mg/kg oral) is listed as 4.6. The concentration for a half-maximal effect (EC50) in assay [2] is 42 nM. Moreover, the half-inhibitory concentration (IC50) in assay [3] stood at 1 nM.
In the same order, the values of `Cc1nn(C(F)F)c(C)c1-c1nccc2[nH]c(=O)c(-c3nc4c(N5C[C@@H](O)C[C@H]5C)nc(Cl)cc4[nH]3)cc12` [Example 85, 3-{6-chloro-4-[(2R,4S)-4-hydroxy-2-methylpyrrolidin-1-yl]-1H-imidazo[4,5-c]pyridin-2-yl}-5-[1-(difluoromethyl)-3,5-dimethyl-1H-pyrazol-4-yl]-1,6-naphthyridin-2(1H)-one] are 6.9, 0.47 nM and 0.39 nM.
As for `Cc1nc(Cl)cc2[nH]c(-c3cc4c(-c5c(C6CC6)nn(C(F)F)c5C)nccc4[nH]c3=O)nc12` [Example 91, 3-(6-chloro-4-methyl-1H-imidazo[4,5-c]pyridin-2-yl)-5-[3-cyclopropyl-1-(difluoromethyl)-5-methyl-1H-pyrazol-4-yl]-1,6-naphthyridin-2(1H)-one], the Snhg1 fold change in assay [1] (10 mg/kg oral) was determined as 5.9. The EC50 in assay [2] is 34 nM. Further, the IC50 in assay [3] amounted to 1.8 nM.
In the same order, the values of `CCc1nc(Cl)cc2[nH]c(-c3cc4c(-c5c(C6CC6)nn(C(F)F)c5C)nccc4[nH]c3=O)nc12` [Example 92, 3-(6-chloro-4-ethyl-1H-imidazo[4,5-c]pyridin-2-yl)-5-[3-cyclopropyl-1-(difluoromethyl)-5-methyl-1H-pyrazol-4-yl]-1,6-naphthyridin-2(1H)-one] are 6.5, 20 nM and 1.9 nM.
The compound `C[C@@H]1COCCN1c1nc(Cl)cc2[nH]c(-c3cc4cnccc4[nH]c3=O)nc12.Cc1ccc(S(=O)(=O)O)cc1` [Example 117, 3-{6-chloro-4-[(3R)-3-methylmorpholin-4-yl]-1H-imidazo[4,5-c]pyridin-2-yl}-1,6-naphthyridin-2(1H)-one p-toluenesulfonate] showed a Snhg1 fold change in assay [1] (10 mg/kg oral) of 5.1. Also, in assay [2], the half-maximal effective concentration (EC50) turned out to be 80 nM. The IC50 in assay [3] came to 5.1 nM.
In assay [1] (10 mg/kg oral), `CS(=O)(=O)O.C[C@@H]1C[C@@H](F)CN1c1nc(Cl)cc2[nH]c(-c3cc4cnccc4[nH]c3=O)nc12` [Example 118, 3-{6-chloro-4-[(2R,4R)-4-fluoro-2-methylpyrrolidin-1-yl]-1H-imidazo[4,5-c]pyridin-2-yl}-1,6-naphthyridin-2(1H)-one methanesulfonate] returned a Snhg1 fold change of 9.1. For the same compound, the EC50 in assay [2] was 34 nM. Also, the IC50 in assay [3] is 1.8 nM.
